Paper PMC9848300, “Discovery of novel enasidenib analogues targeting inhibition of mutant isocitrate dehydrogenase 2 as antileukaemic agents” (Journal of Enzyme Inhibition and Medicinal Chemistry, 2023)

Legend:
RPMI-8226 = assay: NCI 60 antitumor screening (single dose / five doses); type: cell-based; conditions: Homo sapiens; RPMI-8226 (leukaemia), single dose 10 μM; read-out: Growth inhibition percentage (GI %)
SF-539 = assay: as above; type: cell-based; conditions: Homo sapiens; SF-539 (CNS cancer), single dose 10 μM; read-out: Growth inhibition percentage (GI %)
BT-549 = assay: as above; type: cell-based; conditions: Homo sapiens; BT-549 (breast cancer), single dose 10 μM; read-out: Growth inhibition percentage (GI %)
HL-60(TB) = assay: as above; type: cell-based; conditions: Homo sapiens; HL-60(TB) (leukaemia), single dose 10 μM; read-out: Growth inhibition percentage (GI %)
MOLT-4 = assay: as above; type: cell-based; conditions: Homo sapiens; MOLT-4 (leukaemia), single dose 10 μM; read-out: Growth inhibition percentage (GI %)
UACC-62 = assay: as above; type: cell-based; conditions: Homo sapiens; UACC-62 (melanoma), single dose 10 μM; read-out: Growth inhibition percentage (GI %)
UACC-257 = assay: as above; type: cell-based; conditions: Homo sapiens; UACC-257 (melanoma), single dose 10 μM; read-out: Growth inhibition percentage (GI %)
ACHN = assay: as above; type: cell-based; conditions: Homo sapiens; ACHN (renal cancer), single dose 10 μM; read-out: Growth inhibition percentage (GI %)
T-47D = assay: as above; type: cell-based; conditions: Homo sapiens, T47D; T-47D (breast cancer), single dose 10 μM; read-out: Growth inhibition percentage (GI %)
MALME-3M = assay: as above; type: cell-based; conditions: Homo sapiens; MALME-3M (melanoma), single dose 10 μM; read-out: Growth inhibition percentage (GI %)
786-0 = assay: as above; type: cell-based; conditions: Homo sapiens, 786-0, 786-0 (renal cancer), single dose 10 μM; read-out: Growth inhibition percentage (GI %)
SNB-75 = assay: as above; type: cell-based; conditions: Homo sapiens; SNB-75 (CNS cancer), single dose 10 μM; read-out: Growth inhibition percentage (GI %)
MDA-MB-231/ATCC = assay: as above; type: cell-based; conditions: Homo sapiens; MDA-MB-231/ATCC (breast cancer), single dose 10 μM; read-out: Growth inhibition percentage (GI %)
SN 12C = assay: as above; type: cell-based; conditions: Homo sapiens, SN12C; SN 12C (renal cancer), single dose 10 μM; read-out: Growth inhibition percentage (GI %)
LOX IMVI = assay: as above; type: cell-based; conditions: Homo sapiens; LOX IMVI (melanoma), single dose 10 μM; read-out: Growth inhibition percentage (GI %)
NCI/ADR-RES = assay: as above; type: cell-based; conditions: Homo sapiens; NCI/ADR-RES (ovarian cancer), single dose 10 μM; read-out: Growth inhibition percentage (GI %)
[1] = tested on: 60 human subpanel cancer cell lines; assay: NCI 60 antitumor screening, mean over the panel (single dose); type: cell-based; conditions: mean over 60 cancer cell lines, single dose 10 μM
Experimental: (§1) Initially, the anticancer effects of target compounds have been assessed at a single (10 μM) dose. The obtained data have been reported as mean-graph of the percent growth (G%) of the treated cancer cells. Percentage growth inhibition (GI%) is calculated (100 − G%) and pronounced in Table 1. […] Target compounds in series (III) with manipulated linkers disclosed lower potency. Superiorly, eight s-triazine derivatives from the three series (6a, 6c, 6d, 7a, 7g, 7i, 7l, and 8b) have shown potent broad-spectrum anticancer activity against most the examined cell lines, whereas most of the remaining triazine derivatives, 20 derivatives, have exerted selective anti-proliferative actions towards certain cancer cell lines (Supplementary).
(§2) The antitumor screening was performed for 60 human cancer cell lines under the protocol of NCI (www.dtp.nci.nih.gov), the Drug Evaluation Branch, Bethesda, MD. All submitted compounds were nominated based on the degree of structural diversity and computer modelling techniques for evaluation of their anticancer activity. The screening process for antineoplastic activity passes through two successive levels, starting with the assessment of target compounds at a single dose of 10 μM against 60 cancer cell lines on nine types of human tumours. These experiments were done on a triplicate following. The output from the single‐dose screening was covered as a mean graph, and then, analysed by the COMPARE program. Finally, the compounds which disclosed subpanel cancer cell growth (G %) equal to or less than 10% in at least eight cancer cell lines get to pass the assessment against the 60 cell lines at five doses (0.01–100 μM). By using GraphPad Prism version 9.0 (Graphpad Software Inc., La Jolla, CA), GI50, TGI, as well as LC50 dose‐response parameters were computed and presented for each compound (Supplementary information)[55–57].

UO-31 = assay: NCI 60 antitumor screening (single dose / five doses); type: cell-based; conditions: Homo sapiens; UO-31 (renal cancer), single dose 10 μM; read-out: Growth inhibition percentage (GI %)
CCRF-CEM = assay: as above; type: cell-based; conditions: Homo sapiens; CCRF-CEM (leukaemia), single dose 10 μM; read-out: Growth inhibition percentage (GI %)
HT29 = assay: as above; type: cell-based, human; conditions: Homo sapiens, HT-29; HT29 (colon cancer), single dose 10 μM; read-out: Growth inhibition percentage (GI %)
K-562 = assay: as above; type: cell-based; conditions: Homo sapiens, K562; K-562 (leukaemia), single dose 10 μM; read-out: Growth inhibition percentage (GI %)
MDA-MB-435 = assay: as above; type: cell-based; conditions: Homo sapiens; MDA-MB-435 (melanoma), single dose 10 μM; read-out: Growth inhibition percentage (GI %)
HS 578T = assay: NCI 60 antitumor screening (single dose); type: cell-based; conditions: Homo sapiens; HS 578T (breast cancer), single dose 10 μM; read-out: Growth inhibition percentage (GI %)
Experimental: as §1, §2

TK-10 = assay: NCI 60 antitumor screening (single dose); type: cell-based; conditions: Homo sapiens; TK-10 (renal cancer), single dose 10 μM; read-out: Growth inhibition percentage (GI %)
Experimental: as §1, §2

HCT-116 = assay: NCI 60 antitumor screening (single dose / five doses); type: cell-based; conditions: Homo sapiens; HCT-116 (colon cancer), single dose 10 μM; read-out: Growth inhibition percentage (GI %)
HCT-15 = assay: as above; type: cell-based; conditions: Homo sapiens; HCT-15 (colon cancer), single dose 10 μM; read-out: Growth inhibition percentage (GI %)
HOP-92 = assay: as above; type: cell-based; conditions: Homo sapiens; HOP-92 (non-small cell lung cancer), single dose 10 μM; read-out: Growth inhibition percentage (GI %)
SR = assay: as above; type: cell-based; conditions: Homo sapiens; SR (leukaemia), single dose 10 μM; read-out: Growth inhibition percentage (GI %)

Compound | inhibition at 10 µM (RPMI-8226) | inhibition at 10 µM (SF-539) | inhibition at 10 µM (BT-549) | inhibition at 10 µM (HL-60(TB)) | inhibition at 10 µM (MOLT-4) | inhibition at 10 µM (UACC-62) | inhibition at 10 µM (UACC-257) | inhibition at 10 µM (ACHN) | inhibition at 10 µM (T-47D) | inhibition at 10 µM (MALME-3M) | inhibition at 10 µM (786-0) | inhibition at 10 µM (SNB-75) | inhibition at 10 µM (MDA-MB-231/ATCC) | inhibition at 10 µM (SN 12C) | inhibition at 10 µM (LOX IMVI) | inhibition at 10 µM (NCI/ADR-RES) | inhibition at 10 µM (UO-31) | inhibition at 10 µM (CCRF-CEM) | inhibition at 10 µM (HT29) | inhibition at 10 µM (K-562) | also measured
Fc1cccc(/C=N/Nc2nc(N/N=C/c3cccc(F)c3)nc(N3CCCCC3)n2)c1 [compound 7e, 2,4-Bis[(E)-2-[(3-Fluorophenyl)methylidene]hydrazin-1-yl]-6-(piperidin-1-yl)-1,3,5-triazine] | 38.8% | -3.16% | -5.92% | 31.9% | 40.4% | 25.8% | -0.08% | 8.6% | 30.6% | -0.5% | 10.5% | -14.6% | -0.43% | 5.08% | 14.2% | 23.9% | 22.1% | 41.3% | 8.7% | 38.6% | Mean GI % [1]: 10.18%; inhibition at 10 µM (MDA-MB-435): 8.23%; inhibition at 10 µM (HS 578T): -13.2%; inhibition at 10 µM (TK-10): -20.6%; inhibition at 10 µM (HCT-116): 9.65%; inhibition at 10 µM (HCT-15): 29.2%; inhibition at 10 µM (HOP-92): -16%; inhibition at 10 µM (SR): 31.9%
COC(=O)C(Cc1ccccc1)Nc1nc(NC(Cc2ccccc2)C(=O)OC)nc(N2CCOCC2)n1 (stereo not shown) [compound 8c, Methyl 2-({4-[(1-methoxy-1-oxo-3-phenylpropan-2-yl)amino]-6-(morpholin-4-yl)-1,3,5-triazin-2-yl}amino)-3-phenylpropanoate] | 1.47% | 1.99% | -11.7% | -2.51% | -1.03% | 9.82% | -3.35% | -8.95% | -0.53% | -4.87% | -0.43% | 9.51% | -2.54% | -3.62% | -5.03% | -10.6% | 18.8% | -4.54% | -0.61% | 8.42% | inhibition at 10 µM (MDA-MB-435): -4.67%; inhibition at 10 µM (HS 578T): -1.3%; inhibition at 10 µM (TK-10): -3.4%; inhibition at 10 µM (HCT-116): 0.81%; inhibition at 10 µM (HCT-15): -6.16%; inhibition at 10 µM (HOP-92): -18.5%; inhibition at 10 µM (SR): -0.37%
